# pIC50: −log10 of the molar value.
# What was measured:
# RPMI-8226 = test: Cytotoxicity against human RPMI8226 cells assessed as growth inhibition after 48 hrs by sulforhodamine B assay; format: functional; details: RPMI-8226, 48 h
# SR [1] = test: Cytotoxicity against human SR cells assessed as growth inhibition after 48 hrs by sulforhodamine B assay; format: functional
# NCI-H522 = test: Cytotoxicity against human NCI-H522 cells assessed as growth inhibition after 48 hrs by sulforhodamine B assay; format: functional; details: NCI-H522, 48 h
# UACC-62 [2] = test: Cytotoxicity against human UACC62 cells assessed as growth inhibition after 48 hrs by sulforhodamine B assay; format: functional; details: UACC-62, 48 h
# 786-0 [3] = test: Cytotoxicity against human 786-0 cells assessed as growth inhibition after 48 hrs by sulforhodamine B assay; format: functional; details: 786-0, 48 h
# TK-10 = test: Cytotoxicity against human TK10 cells assessed as growth inhibition after 48 hrs by sulforhodamine B assay; format: functional; details: TK-10, 48 h
# UO-31 [4] = test: Cytotoxicity against human UO31 cells assessed as growth inhibition after 48 hrs by sulforhodamine B assay; format: functional; details: UO-31, 48 h
# MCF7 [5] = test: Cytotoxicity against human MCF7 cells assessed as growth inhibition after 48 hrs by MTT assay; format: functional, cell-based; details: MCF7, 48 h
# A498 [6] = test: Cytotoxicity against human A498 cells assessed as cell growth at 0.01 uM after 48 hrs by sulforhodamine B assay relative to control; format: functional; details: A498, 48 h, read-out: Activity
# 786-0 [7] = test: Cytotoxicity against human 786-0 cells assessed as cell growth at 0.01 uM after 48 hrs by sulforhodamine B assay relative to control; format: functional; details: 786-0, 48 h, read-out: Activity
# SK-OV-3 = test: Cytotoxicity against human SKOV3 cells assessed as cell growth at 0.01 uM after 48 hrs by sulforhodamine B assay relative to control; format: functional; details: SK-OV-3, 48 h, read-out: Activity
# SNB-19 = test: Cytotoxicity against human SNB19 cells assessed as cell growth at 0.01 uM after 48 hrs by sulforhodamine B assay relative to control; format: functional; details: SNB-19, 48 h, read-out: Activity
# SW-620 = test: Cytotoxicity against human SW620 cells assessed as cell growth at 0.01 uM after 48 hrs by sulforhodamine B assay relative to control; format: functional; details: SW-620, 48 h, read-out: Activity
# NCI-H226 = test: Cytotoxicity against human NCI-H226 cells assessed as cell growth at 0.01 uM after 48 hrs by sulforhodamine B assay relative to control; format: functional; details: NCI-H226, 48 h, read-out: Activity
# MOLT-4 = test: Cytotoxicity against human MOLT4 cells assessed as cell growth at 0.01 uM after 48 hrs by sulforhodamine B assay relative to control; format: functional; details: MOLT-4, 48 h, read-out: Activity
# MDA-MB-468 = test: Cytotoxicity against human MDA-MB-468 cells assessed as cell growth at 0.01 uM after 48 hrs by sulforhodamine B assay relative to control; format: functional; details: MDA-MB-468, 48 h, read-out: Activity
# SR [8] = test: Cytotoxicity against human SR cells assessed as cell growth at 0.1 uM after 48 hrs by sulforhodamine B assay relative to control; format: functional; details: read-out: Activity
# SK-MEL-5 = test: Cytotoxicity against human SK-MEL-5 cells assessed as cell growth at 0.1 uM after 48 hrs by sulforhodamine B assay relative to control; format: functional; details: SK-MEL-5, 48 h, read-out: Activity
# OVCAR-3 = test: Cytotoxicity against human OVCAR3 cells assessed as cell growth at 0.1 uM after 48 hrs by sulforhodamine B assay relative to control; format: functional; details: OVCAR-3, 48 h, read-out: Activity
# ACHN = test: Cytotoxicity against human ACHN cells assessed as cell growth at 0.1 uM after 48 hrs by sulforhodamine B assay relative to control; format: functional; details: read-out: Activity
# RXF 393 = test: Cytotoxicity against human RXF393 cells assessed as cell growth at 0.1 uM after 48 hrs by sulforhodamine B assay relative to control; format: functional; details: RXF 393, 48 h, read-out: Activity
# A549 = test: Cytotoxicity against human A549/ATCC cells assessed as cell growth at 1 uM after 48 hrs by sulforhodamine B assay relative to control; format: functional; details: A549, 48 h, read-out: Activity
# A498 [9] = test: Cytotoxicity against human A498 cells assessed as cell growth at 1 uM after 48 hrs by sulforhodamine B assay relative to control; format: functional; details: A498, 48 h, read-out: Activity
# MCF7 [10] = test: Cytotoxicity against human MCF7 cells assessed as cell growth at 1 uM after 48 hrs by sulforhodamine B assay relative to control; format: functional; details: MCF7, 48 h, read-out: Activity
# MDA-MB-231 = test: Cytotoxicity against human MDA-MB-231 cells assessed as cell growth at 1 uM after 48 hrs by sulforhodamine B assay relative to control; format: functional; details: MDA-MB-231, 48 h, read-out: Activity
# SK-MEL-28 = test: Cytotoxicity against human SK-MEL-28 cells assessed as cell growth at 10 uM after 48 hrs by sulforhodamine B assay relative to control; format: functional; details: SK-MEL-28, 48 h, read-out: Activity
# UACC-257 [11] = test: Cytotoxicity against human UACC257 cells assessed as cell growth at 10 uM after 48 hrs by sulforhodamine B assay relative to control; format: functional; details: UACC-257, 48 h, read-out: Activity
# UACC-62 [12] = test: Cytotoxicity against human UACC62 cells assessed as cell growth at 10 uM after 48 hrs by sulforhodamine B assay relative to control; format: functional; details: UACC-62, 48 h, read-out: Activity
# IGROV-1 = test: Cytotoxicity against human IGROV1 cells assessed as cell growth at 10 uM after 48 hrs by sulforhodamine B assay relative to control; format: functional; details: IGROV-1, 48 h, read-out: Activity
# UO-31 [13] = test: Cytotoxicity against human UO31 cells assessed as cell growth at 10 uM after 48 hrs by sulforhodamine B assay relative to control; format: functional; details: UO-31, 48 h, read-out: Activity
# BT-549 = test: Cytotoxicity against human BT549 cells assessed as cell growth at 10 uM after 48 hrs by sulforhodamine B assay relative to control; format: functional; details: BT-549, 48 h, read-out: Activity
# U-251 = test: Cytotoxicity against human U251 cells assessed as cell growth at 100 uM after 48 hrs by sulforhodamine B assay relative to control; format: functional; details: U-251, 48 h, read-out: Activity
# UACC-257 [14] = test: Cytotoxicity against human UACC257 cells assessed as cell growth at 100 uM after 48 hrs by sulforhodamine B assay relative to control; format: functional; details: UACC-257, 48 h, read-out: Activity
# A498 [15] = test: Cytotoxicity against human A498 cells assessed as cell growth at 100 uM after 48 hrs by sulforhodamine B assay relative to control; format: functional; details: A498, 48 h, read-out: Activity
smiles,measurement,setting,value
COc1cc(-c2cc(/C=C/C(=O)c3ccc(F)c(F)c3)[nH]n2)cc(OC)c1OC,LC50,RPMI-8226,> 100 µM
same,TGI,RPMI-8226,6.01 µM
same,TGI,SR [1],> 100 µM
same,CC50,SR [1]; read-out: LC50 (the source's name),> 100 µM
same,LC50,NCI-H522,65.2 µM
same,TGI,NCI-H522,4.48 µM
same,LC50,UACC-62 [2],35.3 µM
same,TGI,UACC-62 [2],7.44 µM
same,LC50,786-0 [3],> 100 µM
same,TGI,786-0 [3],15.7 µM
same,LC50,TK-10,> 100 µM
same,TGI,TK-10,7.42 µM
same,LC50,UO-31 [4],> 100 µM
same,TGI,UO-31 [4],14.2 µM
same,pIC50,MCF7 [5],5.60
same,growth at 0.01 µM,A498 [6],100%
same,growth at 0.01 µM,786-0 [7],95%
same,growth at 0.01 µM,SK-OV-3,98%
same,growth at 0.01 µM,SNB-19,89%
same,growth at 0.01 µM,SW-620,95%
same,growth at 0.01 µM,NCI-H226,99%
same,growth at 0.01 µM,MOLT-4,108%
same,growth at 0.01 µM,MDA-MB-468,90%
same,growth at 0.1 µM,SR [8],106%
same,growth at 0.1 µM,SK-MEL-5,96%
same,growth at 0.1 µM,OVCAR-3,104%
same,growth at 0.1 µM,ACHN,106%
same,growth at 0.1 µM,RXF 393,96%
same,growth at 1 µM,A549,82%
same,growth at 1 µM,A498 [9],81%
same,growth at 1 µM,MCF7 [10],99%
same,growth at 1 µM,MDA-MB-231,74%
same,growth at 10 µM,SK-MEL-28,32%
same,growth at 10 µM,UACC-257 [11],-18%
same,growth at 10 µM,UACC-62 [12],-13%
same,growth at 10 µM,IGROV-1,14%
same,growth at 10 µM,UO-31 [13],3%
same,growth at 10 µM,BT-549,23%
same,growth at 100 µM,U-251,-29%
same,growth at 100 µM,UACC-257 [14],-37%
same,growth at 100 µM,A498 [15],-40%
COc1ccc(-c2cc(/C=C/C(=O)c3ccc4c(c3)OCO4)[nH]n2)cc1OC,GI50,RPMI-8226,0.37 µM
same,GI50,SR [1],0.25 µM
same,GI50,NCI-H522,1.69 µM
same,GI50,UACC-62 [2],1.86 µM
same,GI50,786-0 [3],1.81 µM
same,GI50,TK-10,1.5 µM
same,GI50,UO-31 [4],1.5 µM
same,pIC50,MCF7 [5],5.82
